The assay concerns the target T1, human acetyl-CoA carboxylase 2 (ACC2) (Homo sapiens, UniProt O00763).
T1 construct: The cDNA encoding amino acids 144 to 2458 of human acetyl-CoA carboxylase 2; made in house; host or cells: Sf9 insect cells (baculovirus, pFastBac1)
Kind of assay: Acetyl-CoA carboxylase enzyme assay (malonyl-CoA formation by LC/MS/MS). Conditions: recombinant human ACC2 (aa 144-2458); read-out: IC50 ACC2. Format: biochemical. An excerpt: The cDNA encoding amino acids 144 to 2458 of human acetyl-CoA carboxylase 2 (ACC2, GenBank Accession #NM_001093) was cloned into the SalI and NotI sites of pFastBac1 (Invitrogen; Carlsbad, Calif.). The resulting plasmid was used to generate a recombinant ACC2 baculovirus that was amplified and titered according to the protocols in the Bac-to-Bac baculovirus expression system manual (Invitrogen). The titered virus was used to infect Sf9 cells grown in Ex-Cell 420 serum-free medium (JRH Biosciences; Lenexa, Kans.). At 48 hours post-infection, the cells were harvested and stored at −80° C. until purification. ACC2 was purified using ammonium sulfate precipitation and anion exchange chromatography.
The enzymatic assay was run as follows: 30 μL of reaction buffer (100 mM HEPES pH 7.5, 20 mM MgCl2, 20 mM potassium citrate, 2 mM DTT) was added to a 384-well microtiter plate followed by 2 μL of the test compound (or 100% DMSO control). ACC2 protein (10 μL of a 50 nM working solution) was added to plate, which was incubated at room temperature for 15 minutes. A 30 μL addition of substrate solution (50 μM acetyl-CoA, 120 μM ATP, 2 mM KHCO3) was used to initiate the reactions which were quenched with 6% acetic acid (40 μL). ACC catalyzed malonyl-CoA formation was detected by LC/MS/MS using a Cohesive Technologies LX Series multiplex LC/MSIMS system configured with four binary pumps (Agilent Technologies; Palo Alto, Calif.), a dual arm autosampler (Leap Technologies; Cary, N.C.), and one Quattro Micro triple quadrupole mass spectrometer (Waters, Milford, Mass.), all run by Aria Software version 1.5 (Cohesive Technologies; Franklin, Mass.). Four samples were injected (20 μL) onto four Phenosphere NEXT C18 30×2 mm 5 μm columns (Phenomenex; Torrance, Calif.), eluted by four separate pumps, running identical gradients, through a column switching manifold with the one outlet fitted to the electrospray (ESI) source. Malonyl-CoA was eluted with 5 mM ammonium acetate, pH 4.5 (Buffer A) and 100% acetonitrile (Buffer B) via a step gradient. Argon was used as the collision gas and the following species were monitored via MRM detection: malonyl-CoA (853.8>346.9), internal standard (A: [^13C3]-malonyl-CoA, 857>350). The lower limit of detection is 0.3 uM for malonyl-CoA in this assay.
T1 sequence (O00763 144-2458): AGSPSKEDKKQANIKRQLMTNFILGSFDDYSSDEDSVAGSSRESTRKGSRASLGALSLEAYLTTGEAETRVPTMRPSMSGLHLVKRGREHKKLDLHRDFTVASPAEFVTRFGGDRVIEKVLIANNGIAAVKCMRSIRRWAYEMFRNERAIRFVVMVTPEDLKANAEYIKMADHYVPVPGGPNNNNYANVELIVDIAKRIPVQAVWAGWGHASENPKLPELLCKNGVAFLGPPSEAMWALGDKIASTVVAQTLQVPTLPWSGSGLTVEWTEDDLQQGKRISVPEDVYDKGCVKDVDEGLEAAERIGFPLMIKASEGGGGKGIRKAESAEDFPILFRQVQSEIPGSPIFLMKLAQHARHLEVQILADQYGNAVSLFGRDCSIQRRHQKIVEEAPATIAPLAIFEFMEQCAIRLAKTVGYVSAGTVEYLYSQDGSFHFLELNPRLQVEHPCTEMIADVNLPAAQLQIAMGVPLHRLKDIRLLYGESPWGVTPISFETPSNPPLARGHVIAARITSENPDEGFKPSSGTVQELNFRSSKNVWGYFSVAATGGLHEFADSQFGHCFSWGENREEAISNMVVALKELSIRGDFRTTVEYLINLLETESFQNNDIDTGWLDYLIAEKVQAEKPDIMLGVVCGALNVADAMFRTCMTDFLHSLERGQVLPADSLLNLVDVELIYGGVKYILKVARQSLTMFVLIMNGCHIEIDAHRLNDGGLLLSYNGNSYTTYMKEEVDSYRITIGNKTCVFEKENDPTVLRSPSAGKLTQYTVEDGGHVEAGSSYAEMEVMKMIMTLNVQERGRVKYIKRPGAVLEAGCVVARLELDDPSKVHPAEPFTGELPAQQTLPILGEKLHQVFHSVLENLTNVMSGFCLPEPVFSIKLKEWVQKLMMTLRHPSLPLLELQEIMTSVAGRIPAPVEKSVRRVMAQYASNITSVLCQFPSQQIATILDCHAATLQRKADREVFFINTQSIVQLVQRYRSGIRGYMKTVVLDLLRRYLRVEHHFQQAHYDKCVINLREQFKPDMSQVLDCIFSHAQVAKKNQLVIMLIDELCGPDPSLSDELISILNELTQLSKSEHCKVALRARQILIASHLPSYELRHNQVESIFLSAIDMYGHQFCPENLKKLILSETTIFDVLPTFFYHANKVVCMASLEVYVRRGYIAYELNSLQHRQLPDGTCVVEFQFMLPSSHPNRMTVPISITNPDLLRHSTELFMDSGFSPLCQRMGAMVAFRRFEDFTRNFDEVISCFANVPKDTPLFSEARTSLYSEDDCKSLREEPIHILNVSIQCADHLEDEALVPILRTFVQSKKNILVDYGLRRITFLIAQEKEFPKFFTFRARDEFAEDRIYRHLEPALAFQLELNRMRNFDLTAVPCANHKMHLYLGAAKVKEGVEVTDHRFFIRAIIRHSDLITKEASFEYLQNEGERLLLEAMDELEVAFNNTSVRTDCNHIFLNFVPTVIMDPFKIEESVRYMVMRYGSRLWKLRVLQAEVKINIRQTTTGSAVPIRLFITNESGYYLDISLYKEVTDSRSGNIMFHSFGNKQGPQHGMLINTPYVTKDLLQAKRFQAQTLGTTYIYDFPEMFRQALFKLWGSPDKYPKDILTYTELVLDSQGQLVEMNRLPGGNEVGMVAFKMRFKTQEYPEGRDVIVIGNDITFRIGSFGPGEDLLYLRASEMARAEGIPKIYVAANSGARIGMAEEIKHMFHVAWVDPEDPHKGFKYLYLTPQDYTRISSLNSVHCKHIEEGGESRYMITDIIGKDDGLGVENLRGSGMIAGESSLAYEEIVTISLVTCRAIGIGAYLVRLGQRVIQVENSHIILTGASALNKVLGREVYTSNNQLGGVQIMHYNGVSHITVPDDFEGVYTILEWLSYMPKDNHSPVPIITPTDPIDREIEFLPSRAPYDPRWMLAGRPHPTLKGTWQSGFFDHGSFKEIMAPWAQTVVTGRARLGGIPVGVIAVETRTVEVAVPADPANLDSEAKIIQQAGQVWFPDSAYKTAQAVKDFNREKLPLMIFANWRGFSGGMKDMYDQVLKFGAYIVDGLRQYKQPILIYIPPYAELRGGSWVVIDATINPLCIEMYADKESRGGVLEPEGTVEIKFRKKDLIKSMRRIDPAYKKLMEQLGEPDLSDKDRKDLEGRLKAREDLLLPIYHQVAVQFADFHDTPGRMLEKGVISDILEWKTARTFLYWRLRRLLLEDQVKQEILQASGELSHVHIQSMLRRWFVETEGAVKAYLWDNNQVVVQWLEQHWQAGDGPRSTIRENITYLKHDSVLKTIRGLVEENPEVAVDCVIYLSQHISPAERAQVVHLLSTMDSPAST
As usually defined, the IC50 is the concentration that gives 50% inhibition. On to `CCN(C)C(=O)[C@H]1CC[C@H](NS(=O)(=O)c2ccc3c(Cl)c(-c4ccc(CCC(=O)O)cc4)n(C)c3c2)CC1` [Example 366, 3-(4-(3-chloro-6-(N-((1r,4r)-4-(ethyl(methyl)carbamoyl)cyclohexyl)sulfamoyl)-1-methyl-1H-indol-2-yl)phenyl)propanoic acid], for which the IC50 was found to be 15 nM. Consider `Cn1c(-c2ccccc2)cc2ccc(S(=O)(=O)N[C@H]3CC[C@H](C(=O)N[C@@H](c4ccccc4)C(C)(C)O)CC3)cc21` [Example 352, (1r,4S)-N-((S)-2-hydroxy-2-methyl-1-phenylpropy1)-4-(1-methyl-2-phenyl-1H-indole-6-sulfonamido)cyclohexanecarboxamide], for which the 50% inhibitory concentration (IC50) is less than 10 nM. On to `CC(NC(=O)[C@H]1CC[C@H](NS(=O)(=O)c2cnc3ccccc3c2)CC1)c1ccc(C(F)(F)F)cc1` (stereo partly shown) [Example 45, (1r,4r)-4-(quinoline-3-sulfonamido)-N-(1-(4-(trifluoromethyl)phenyl)ethyl)cyclohexanecarboxamide], for which the IC50 is more than 35000 nM.

Turning to `C[C@@H](NC(=O)[C@H]1CC[C@H](NS(=O)(=O)c2cnc3c(c2)N(C)CCCN3C)CC1)c1ccc(F)cc1` [Example 128, (1r,4R)-4-(1,5-dimethyl-2,3,4,5-tetrahydro-1H-pyrido[2,3-b][1,4]diazepine-8-sulfonamido)-N-((R)-1-(4-fluorophenyl)ethyl)cyclohexanecarboxamide], the IC50 amounted to 146 nM.

As to `C[C@@H](NC(=O)[C@H]1CC[C@H](NS(=O)(=O)c2ccc3[nH]c(-c4ccc(CN5CCN(C)CC5)cc4)nc3c2)CC1)c1ccccc1` [Example 576, (1r,4R)-4-(2-(4-((4-methylpiperazin-1-yl)methyl)phenyl)-1H-benzo[d]imidazole-5-sulfonamido)-N-((R)-1-phenylethyl)cyclohexanecarboxamide], the IC50 is less than 10 nM. For `CC(=O)Nc1ccc(-c2nc3ccc(S(=O)(=O)Nc4ccc(C(=O)OC(C)C)cc4)cc3[nH]2)cc1` [Example 498, isopropyl 4-(2-(4-acetamidophenyl)-1H-benzo[d]imidazole-6-sulfonamido)benzoate], the IC50 is 495 nM. Next, `CC(C)OC(=O)c1ccc(NS(=O)(=O)c2ccc3nc(-c4ccc(N(C)C)cc4)[nH]c3c2)cc1` [Example 508, isopropyl 4-(2-(4-(dimethylamino)phenyl)-1H-benzo[d]imidazole-6-sulfonamido)benzoate]: 1380 nM; `CC(C)OC(=O)c1ccc(NS(=O)(=O)c2ccc3[nH]c(Nc4cccc(F)c4)nc3c2)cc1` [Example 535, isopropyl 4-(2-(3-fluorophenylamino)-1H-benzo[d]imidazole-5-sulfonamido)benzoate]: 225 nM; `CC(C)OC(=O)c1ccc(NS(=O)(=O)c2ccc3[nH]c(-c4ccc(CNCc5ccccc5)cc4)nc3c2)cc1` [Example 560, isopropyl 4-(2-(4-((benzylamino)methyl)phenyl)-1H-benzo[d]imidazole-5-sulfonamdo)benzoate]: 397 nM. For `C[C@@H](NC(=O)[C@H]1CC[C@H](NS(=O)(=O)c2ccc3c(c2)OCCN3C)CC1)c1ccc(F)cc1` [Example 122, (1r,4R)-N-((R)-1-(4-fluorophenyl)ethyl)-4-(4-methyl-3,4-dihydro-2H-benzo[b][1,4]oxazine-7-sulfonamido)cyclohexanecarboxamide], the half-maximal inhibitory concentration (IC50) came to 16 nM. On to `Cc1ccccc1-c1cc2ccc(S(=O)(=O)N[C@H]3CC[C@H](C(=O)N4CCC[C@H]4C)CC3)cc2[nH]1` [Example 137, N-((1R,4r)-4-((R)-2-methylpyrrolidine-1-carbonyl)cyclohexyl)-2-o-tolyl-1H-indole-6-sulfonamide], for which the IC50 is 162 nM.

`Cn1c(-c2ccccc2)cc2ccc(S(=O)(=O)N[C@H]3CC[C@H](C(=O)N4CCC[C@@H](C(C)(C)O)C4)CC3)cc21` [Example 403, N-((1R,4r)-4-((R)-3-(2-hydroxypropan-2-yl)piperidine-1-carbonyl)cyclohexyl)-1-methyl-2-phenyl-1H-indole-6-sulfonamide]: the IC50 is 10 nM.

As to `Cn1c(C2CC2)c(C#N)c2ccc(S(=O)(=O)N[C@H]3CC[C@H](C(=O)N4CCCC4C(C)(C)C)CC3)cc21` (stereo partly shown) [Example 390, N-((1r,4r)-4-(2-tert-butylpyrrolidine-1-carbonyl)cyclohexyl)-3-cyano-2-cyclopropyl-1-methyl-1H-indole-6-sulfonamide], the IC50 came out at 10 nM. With `CC(C)(CO)[C@@H](NC(=O)[C@H]1CC[C@H](NS(=O)(=O)c2ccc3c(Cl)c(-c4ccccc4)[nH]c3c2)CC1)c1ccccc1` [Example 478, (1r,4S)-4-(3-chloro-2-phenyl-1H-indole-6-sulfonamido)-N-((S)-3-hydroxy-2,2-dimethyl-1-phenylpropyl)cyclohexanecarboxamide] the figure was less than 10 nM. As to `C[C@@H](NC(=O)[C@H]1CC[C@H](NS(=O)(=O)c2ccc3c(c2)CCC(=O)N3)CC1)c1ccc(F)cc1` [Example 110, (1r,4R)-N-((R)-1-(4-fluorophenyl)ethyl)-4-(2-oxo-1,2,3,4-tetrahydroquinoline-6-sulfonamido)cyclohexanecarboxamide], the IC50 turned out to be 290 nM. With `Cc1cc(-c2ccc3cc(S(=O)(=O)N[C@H]4CC[C@H](C(=O)N[C@H](C)c5ccc(F)cc5)CC4)ccc3n2)cc(C)n1` [Example 227, (1r,4R)-4-(2-(2,6-dimethylpyridin-4-yl)quinoline-6-sulfonamido)-N-((R)-1-(4-fluorophenyl)ethyl)cyclohexanecarboxamide] the figure was 15 nM; with `CC(C)OC(=O)c1ccc(NS(=O)(=O)c2ccc3nc(-c4ccc(C(C)C)cc4)[nH]c3c2)cc1` [Example 506, isopropyl 4-(2-(4-isopropylphenyl)-1H-benzo[d]imidazole-6-sulfonamido)benzoate], 1950 nM; with `Cc1nc2ccc(S(=O)(=O)N[C@H]3CC[C@H](C(=O)N[C@H](C)c4ccc(F)cc4)CC3)cc2s1` [Example 660, (1r,4R)-N-((R)-1-(4-fluorophenyl)ethyl)-4-(2-methylbenzo[d]thiazole-6-sulfonamido)cyclohexanecarboxamide], 242 nM. Consider `COC(=O)CCc1ccc(-c2cc3ccc(S(=O)(=O)N[C@H]4CC[C@H](C(=O)N5CCCCC5)CC4)cc3n2C)cc1` [Example 357, methyl 3-(4-(1-methyl-6-(N-((1r,4r)-4-(piperidine-1-carbonyl)cyclohexyl)sulfamoyl)-1H-indol-2-yl)phenyl)propanoate], for which the IC50 amounted to 120 nM.

As to `O=S(=O)(N[C@H]1CC[C@H](c2nnc(C3CCCCC3)o2)CC1)c1ccc2c(c1)CNCC2` [Example 685, N-((1r,4r)-4-(5-cyclohexyl-1,3,4-oxadiazol-2-yl)cyclohexyl)-1,2,3,4-tetrahydroisoquinoline-7-sulfonamide], the IC50 is more than 35000 nM. On to `O=C([C@H]1CC[C@H](NS(=O)(=O)c2ccc3oc4ccccc4c3c2)CC1)N1CCNC[C@@H]1c1ccccc1` [Example 256, N-((1S,4r)-4-((S)-2-phenylpiperazine-1-carbonyl)cyclohexyl)dibenzo[b,d]furan-2-sulfonamide], for which the IC50 amounted to 20 nM. Next, `CC(=O)c1cccc(-c2nc3ccc(S(=O)(=O)Nc4ccc(C(=O)OC(C)C)cc4)cc3[nH]2)c1` [Example 494, isopropyl 4-(2-(3-acetylphenyl)-1H-benzo[d]imidazole-6-sulfonamido)benzoate]: 1890 nM; `COCCNC(=O)c1ccc2cc(S(=O)(=O)N[C@H]3CC[C@H](C(=O)N[C@H](C)c4ccc(F)cc4)CC3)ccc2n1` [Example 207, 6-(N-((1R,4r)-4-((R)-1-(4-fluorophenyl)ethylcarbamoyl)cyclohexyl)sulfamoyl)-N-(2-methoxyethyl)quinoline-2-carboxamide]: 355 nM; `CC(C)COC(=O)N1CCN(C(=O)OCC(C)C)c2cc(S(=O)(=O)N[C@H]3CC[C@H](C(=O)N[C@H](C)c4ccc(F)cc4)CC3)ccc21` [Example 214, diisobutyl 6-(N-((1R,4r)-4-((R)-1-(4-fluorophenyl)ethylcarbamoyl)cyclohexyl)sulfamoyl)-2,3-dihydroquinoxaline-1,4-dicarboxylate]: 365 nM.

Regarding `C[C@@H]1CN(C(=O)[C@H]2CC[C@H](NS(=O)(=O)c3ccc4c(C#N)c(C5CC5)n(C)c4c3)CC2)C[C@H](C)O1` [Example 417, 3-cyano-2-cyclopropyl-N-((1R,4r)-4-((2S,6R)-2,6-dimethylmorpholine-4-carbonyl)cyclohexyl)-1-methyl-1H-indole-6-sulfonamide], the IC50 stood at 80 nM.

For the origin of these results see patent US8697739B2, “Bicyclic acetyl-CoA carboxylase inhibitors and uses thereof” (Novartis AG, priority 2010, dated 2014).
